According to US20070037238A1, “Composition for suppressing PQQGDH reaction inhibition” (Toyo Boseki Kabushiki Kaisha, priority 2005, published 2007):

Tested on: PQQGDH
Assay: Measurement with glucose electrodes
Type: biochemical
Conditions: 0.1 M potassium ferricyanide, D-glucose 5-40 mM, 25° C., +0.35 V
Experimental: 0.5 g of carbon graphite and 0.3 mL of fluid paraffin were ground well with a mortar and pestle to form a carbon paste. This carbon paste was spread on a platinum electrode, and 10 μL of PQQGDH solution (Toyo Boseki GLD-331, 2,000 U/mL) was placed thereon and air-dried for 30 minutes at room temperature. This electrode was covered with a semipermeable cellulose membrane (molecular weight cut-off 8.000), and the semipermeable membrane was fixed with an O-ring to prepare a glucose electrode. This glucose electrode was used after having been soaked for 30 minutes or more in the buffer used for measurement. […] After about 5 minutes when the response current was confirmed to have stabilized, a D-glucose solution was added and the rise in the response current was monitored. […] The theoretical values here are the response value at each concentration calculated based on measurement values at 5 mM, assuming that the D-glucose amount and measurement value are proportional, and these are given as straight lines in the figures. The response values were more linear when pimelic acid and succinic acid were added in comparison to the solution of phosphoric acid and glutaric acid alone, and the actual measured response values at glucose concentrations of 30 mM or more are particularly close to the corresponding theoretical values.

Structure (SMILES) | linearity of glucose electrode response values versus D-glucose concentration (1% pimelic acid in 50 mM potassium phosphate buffer pH 7.0 (Buffer B vs Buffer A)) | linearity of glucose electrode response values versus D-glucose concentration (1% succinic acid in 50 mM glutaric acid pH 7.0 (Buffer D vs Buffer C))
O=C(O)CCCCCC(=O)O [pimelic acid] | more linear | 
O=C(O)CCC(=O)O [succinic acid] |  | more linear
